Literature values, collected in patent US20130236595A1, “FOOD PRODUCT PROVIDING SUSTAINED BLOOD LEVELS OF EXOGENOUS SUBSTANCES” (NESTEC S.A., priority 2003, published 2013).
“Also recorded” adds a separate entry of the source.

How the values were obtained:
[1] = caffeine in blood plasma

## Cn1c(=O)c2c(ncn2C)n(C)c1=O [caffeine]
After a cup of coffee is consumed
  time of peak in caffeine level in blood: after about an hour; also recorded: after one hour
In adults
  half-life of caffeine: 3 to 7 h
[1]
  threshold value for stimulation: about 2 mg/l
